In patent US10561629B2, “Food containing glycine and use thereof” (AJINOMOTO CO., INC., priority 2004, dated 2020):
Read-outs that look alike come from different tables or passages of the source.

How the values were obtained:
[1] = intake at 0.1 g per day; cited from earlier work
[2] = 3 g 30 min before bedtime, next daytime, mean ± standard error
Description: A single-blind crossover study aimed at confirmation of the effect of glycine on sleep was performed with 7 male adults (30s-40s, body weight 62-79 kg). The test participants took glycine (granule containing citric acid and the like) in an amount equivalent to 3 g of glycine 30 min before bedtime, and reduced maltose containing components other than glycine (citric acid and the like) and adjusted to an almost indistinguishable taste was used as a placebo. The sleep hours on the day of administration was limited to about 75% (5-6.5 hr) of comfortable sleep hours each test participant voluntarily notified, and a nap was prohibited until the end of the administration. For the test, glycine and placebo were each taken for 3 days with an interval of a 14-21 day non-intake period, totaling 4-5 weeks. Of the 3 days, the following investigation and measurement were performed at 10 o'clock, 14 o'clock and 18 o'clock of the next day of the first day of the intake.
(2) To evaluate the cognitive and psychomotor function as a reflection of the quality of sleep, an operation efficiency test using a computer was performed. As a three kind discrimination response task, a task of responding to only one predetermined kind from randomly designed three kinds of graphics on the screen was given.

[3] = Excerpt: Table 5 reports the bowel movements on the next morning and the corresponding number of days.
[4] = rats, 2 g/kg, mean±standard error
Description: Glycine (substantially pure glycine powder) was administered to rats at 0 g/kg and 2 g/kg (0 g/kg for control) and using the rat, spontaneous electroencephalogram and cervix electromyogram were recorded through an electrode placed in the cortex hippocampus, and further, the amount of spontaneous motor activity was measured by an infrared ray monitor. The sleep-wake cycle was analyzed from the electroencephalogram, electromyogram and behavior record (kymogram), and percent occupation of light period and dark period and latency time were calculated.

[5] = for Heavy sleepiness (1 pm to 5 pm next afternoon) / Mild sleepiness (1 pm to 5 pm next afternoon) / No sleepiness (1 pm to 5 pm next afternoon): intake of glycine 1.5 g before sleep
Excerpt: Three test participants (test participants A-C, body weight 64-74 kg) who were then visiting the U.S. for 5 days took glycine (1.5 g, substantially pure tablet glycine containing only excipient and flavor) before sleep and evaluated the sleepiness felt from 1 pm to 5 pm the next afternoon in 3 levels as compared to the absence of glycine.

[6] = 3 g before bed
Description: The test participant (body weight 45 kg) took, before going to bed, 3 g of glycine directly or upon addition to various foods (see, Table 3). The content (amount based on amino acid) of an amino acid other than glycine or a substance that can be hydrolyzed to give an amino acid other than glycine in these foods was generally 0 to 4 g. As compared to free of glycine intake, easiness of falling asleep and realization of deep sleep upon waking the next morning were recorded and summarized in Table 3.

[7] = one participant, 1.0-1.5 g tablet glycine, trip to East Coast USA, vs previous similar trips
Excerpt: In the Figure, glycine (substantially pure tablet glycine containing only excipient and flavor) was taken at the time point marked with an arrow, wherein 1.0 g was taken on “June 20” and “June 21” and 1.5 g was taken on “June 22”-“June 26” and “June 29”.

[8] = Voluntary comments on quality of sleep, 77 participants (Experimental Example 5); settings: 3 g glycine
[9] = beagles, oral 30 or 300 mg/kg
Description: Glycine (substantially pure glycine powder) was administered at 0, 30, or 300 mg/kg (0 mg/kg for control, CTRL) to beagles, and using the beagles, the R-R interval in electrocardiogram was measured by a telemetry system as an index of sympathetic activity. The measurement was conducted in the night after glycine administration. From the R-R interval after oral administration of glycine, moreover, sympathetic activity ((low frequency component LF)/(high frequency component HF)) and parasympathetic activity (high frequency component HF) were examined by power spectrum analysis.

[10] = test participant A, tablet intake (1 g) before bed
[11] = test participant B, intake (3 g) with yoghurt before bed
[12] = test participant B, powder intake (3 g) before bed
[13] = 0-3 hr after administration, dark period
[14] = 0-3 hr after administration, light period
[15] = 4-6 hr after administration, dark period
[16] = 4-6 hr after administration, light period
[17] = addition to Japanese tea, 10 days of testing
[18] = addition to herb tea, 5 days of testing
[19] = addition to hot milk, 4 days of testing
[20] = addition to hot water or water, 14 days of testing
[21] = addition to yoghurt, 7 days of testing
[22] = voluntary comments of 77 participants

participants commenting that the quality was degraded ([8]; out of 77 participants): 2 participants | Awakening was fresh: Degrading effect [8, 22]: 1 person | Deep sleep was realized: Degrading effect [8, 22]: 0 person | Did not wake up at midnight: Degrading effect [8, 22]: 1 person | Fell asleep easily: Degrading effect [8, 22]: 0 person | Had no dream: Degrading effect [8, 22]: 0 person | Sleep was deeper: Degrading effect [8, 22]: 0 person | Slept well: Degrading effect [8, 22]: 0 person | Snoring decreased: Degrading effect [8, 22]: 0 person | sleepiness during daytime reduced: Degrading effect [8, 22]: 0 person
SMILES: NCC(=O)O [glycine, Glycine]
memory and attention [1]: increases memory and attention | Response time ([2]; placebo 0.393 ± 0.025, p value 0.028): 0.366 ± 0.021 s | Lapse (number of response where reaction time was 500 msec or longer) ([2]; placebo 2.67 ± 3.06, p value 0.017): 1.19 ± 1.69 times | percentage of correct answer ([2]; placebo 95.6 ± 5.20, p value 0.043): 98.4 ± 1.16% | No bowel movement (next morning) [3, 10]: 2 days | Presence of bowel movement (next morning) [3, 10]: 10 days | No bowel movement (next morning) [3, 11]: 0 days | Presence of bowel movement (next morning) [3, 11]: 4 days | No bowel movement (next morning) [3, 12]: 1 days | Presence of bowel movement (next morning) [3, 12]: 7 days | Percent occupation, fast wave sleep stage [4, 13]: 3.2 ± 1.7% | Percent occupation, slow wave sleep stage [4, 13]: 29.2 ± 6.5% | Percent occupation, waking stage [4, 13]: 67.6 ± 7.9% | Percent occupation, fast wave sleep stage [4, 14]: 5.5 ± 1.6% | Percent occupation, slow wave sleep stage [4, 14]: 54.9 ± 4.9% | Percent occupation, waking stage [4, 14]: 39.6 ± 6.0% | Percent occupation, fast wave sleep stage [4, 15]: 3.0 ± 0.7% | Percent occupation, slow wave sleep stage [4, 15]: 31.5 ± 2.8% | Percent occupation, waking stage [4, 15]: 65.6 ± 3.4% | Percent occupation, fast wave sleep stage [4, 16]: 13.4 ± 2.1% | Percent occupation, slow wave sleep stage [4, 16]: 65.9 ± 2.0% | Percent occupation, waking stage [4, 16]: 20.7 ± 0.8% | Amount of spontaneous motor activity at 6 hr after administration ([4]; dark period): 19464 ± 2765 count | Latency time, fast wave sleep stage ([4]; dark period): 118.2 ± 28.3 min | Latency time, slow wave sleep stage ([4]; dark period): 78.6 ± 22.8 min | Amount of spontaneous motor activity at 6 hr after administration ([4]; light period): 2316 ± 295 count | Latency time, fast wave sleep stage ([4]; light period): 20.9 ± 3.4 min | Latency time, slow wave sleep stage ([4]; light period): 8.5 ± 1.2 min | sleepiness during the next daytime ([5]; all three test participants, 1.5 g before sleep, compared to absence of glycine): felt a lower level of sleepiness | Heavy sleepiness (1 pm to 5 pm next afternoon) ([5]; test participant A): 0 days | Mild sleepiness (1 pm to 5 pm next afternoon) ([5]; test participant A): 2 days | No sleepiness (1 pm to 5 pm next afternoon) ([5]; test participant A): 2 days | Heavy sleepiness (1 pm to 5 pm next afternoon) ([5]; test participant B): 0 days | Mild sleepiness (1 pm to 5 pm next afternoon) ([5]; test participant B): 1 days | No sleepiness (1 pm to 5 pm next afternoon) ([5]; test participant B): 2 days | Heavy sleepiness (1 pm to 5 pm next afternoon) ([5]; test participant C): 0 days | Mild sleepiness (1 pm to 5 pm next afternoon) ([5]; test participant C): 0 days | No sleepiness (1 pm to 5 pm next afternoon) ([5]; test participant C): 1 days | Improved easiness of falling asleep [6, 17]: 9 days | Improved realization of deep sleep [6, 17]: 10 days | Improved easiness of falling asleep [6, 18]: 5 days | Improved realization of deep sleep [6, 18]: 5 days | Improved easiness of falling asleep [6, 19]: 4 days | Improved realization of deep sleep [6, 19]: 4 days | Improved easiness of falling asleep [6, 20]: 14 days | Improved realization of deep sleep [6, 20]: 14 days | Improved easiness of falling asleep [6, 21]: 7 days | Improved realization of deep sleep [6, 21]: 7 days | Improved easiness of falling asleep ([6]; powder, 3 days of testing): 3 days | Improved realization of deep sleep ([6]; powder, 3 days of testing): 3 days | arousal during sleep [7]: reduced or eliminated arousal during sleep | participants commenting that no effect was found ([8]; out of 77 participants): 17 participants | participants commenting that the quality of sleep was improved ([8]; out of 77 participants): 58 participants | Awakening was fresh: Enhancing effect on quality of sleep [8, 22]: 24 person | Deep sleep was realized: Enhancing effect on quality of sleep [8, 22]: 8 person | Did not wake up at midnight: Enhancing effect on quality of sleep [8, 22]: 6 person | Fell asleep easily: Enhancing effect on quality of sleep [8, 22]: 6 person | Had no dream: Enhancing effect on quality of sleep [8, 22]: 4 person | Sleep was deeper: Enhancing effect on quality of sleep [8, 22]: 10 person | Slept well: Enhancing effect on quality of sleep [8, 22]: 2 person | Snoring decreased: Enhancing effect on quality of sleep [8, 22]: 19 person | sleepiness during daytime reduced: Enhancing effect on quality of sleep [8, 22]: 4 person | R-R interval in electrocardiogram ([9]; 1-4 hr after administration, compared to control): increased | parasympathetic activity (high frequency component HF) ([9]; power spectrum analysis of R-R interval): dominant
